The results in this text go back to ChEMBL document CHEMBL1157539, “Thousands of chemical starting points for antimalarial lead identification” (Nature, 2010).

Structures are written as SMILES.

This experiment concerns Plasmodium falciparum. Put plainly: GSK_TCMDC: Inhibition of Plasmodium falciparum 3D7 in whole erythrocytes, using parasite LDH activity as an index of growth. The format is functional, organism-based. The following applies: Plasmodium falciparum, 3D7.
`N=C(Nc1nc(-c2ccccn2)cc2ccccc12)c1cccc(Cl)c1`: the XC50 came out at 309 nM.

The molecule `CCCc1cc2c3c(N)nc(N)nc3ccc2n1CC` showed an XC50 of 47.7 nM.

Molecule `COc1ccc2c(C)cc(NCCCN(C)C)nc2c1` came in with an XC50 of 1100 nM.

As for `O=C(Nc1cccc(-c2csc(-c3nc4ccccc4[nH]3)c2)c1)c1ccncc1`, the XC50 turned out to be 256 nM.

`O=C(N[C@H]1CCN(CCc2ccc(O[C@H]3CCNC3)c(F)c2)C1)c1ccc(Cl)c(Cl)c1` gave an XC50 of 1190 nM.

In turn, `CCc1ccccc1-c1csc(C(=O)NCC2CCN(Cc3ccc(C(C)(C)C)cc3)C2)c1` (stereo unspecified) showed an XC50 of 1150 nM.

As to `COc1ccccc1C(=O)C1CCCN(C(=O)c2ccccc2C(F)(F)F)C1` (stereo unspecified), the XC50 stood at 602 nM.

For the molecule `CN1CCN(CCCNCc2cccc(-c3ccc(CNCCc4ccccc4)cc3)c2)CC1`, the XC50 is 781 nM.

For the molecule `N#Cc1c(F)cc(N2CCC(NCC[C@H](N)Cc3ccc(F)c(F)c3)CC2)cc1F`, the XC50 came out at 857 nM.

As to `COc1ccc(C2C(C(=O)Nc3ccc(C)c(F)c3)c3cc(OC)c(OC)cc3C(=O)N2C)cc1` (stereo unspecified), the XC50 was determined as 956 nM.

`CC(C)NC[C@@H](O)[C@H](Cc1ccccc1)NC(=O)c1cc2c3c(c1)c(C(C)C)cn3CCS(=O)(=O)N2C` showed an XC50 of 179 nM.

Molecule `O=C(N[C@H]1CCCC[C@H]1C(=O)O)c1ccccc1` returned an XC50 of 781 nM.

The molecule `CCNC(=O)Nc1ccc(N(C)c2ccnc(NC3CC3)n2)cc1` gave an XC50 of 803 nM.

`C=C1N(C)c2cc([N+](=O)[O-])c(N)cc2C1(C)C` gave an XC50 of 486 nM.

`COC(=O)c1cccc(CNCc2ccc(-c3ccc(-c4nc5cc(F)ccc5[nH]4)cc3)cc2)c1` yielded an XC50 of 237 nM.

`COc1ccc2nccc([C@@H](O)CN3CCC(NCCOc4cc(C(F)(F)F)ccc4F)CC3)c2c1` came in with an XC50 of 108 nM.

Molecule `Nc1nc(N)c2cc(Cc3ccc([N+](=O)[O-])cc3)cnc2n1` returned an XC50 of 943 nM.

Turning to `O=C(/C=C/c1ccc(Cl)c(Cl)c1)N1CCC(C(O)CN2CCC(c3c[nH]c4ccccc34)CC2)CC1` (stereo unspecified), the XC50 turned out to be 859 nM.

`COc1c(C2CCN(CCN3CCC(CNC(=O)c4ccc(-c5ccc(C#N)cc5)cc4)CC3)CC2)ccc2c1CCCC2` returned an XC50 of 455 nM.

In turn, `CCCCCCOc1ccccc1C(=O)NCCOc1ccc(Cl)cc1` came in with an XC50 of 1210 nM.

As for `COc1ccc(CNC(=O)Nc2cc3cc(-c4ccc(CN5CCCC5)cc4)ccc3n3c(C)nnc23)cc1`, the XC50 stood at 654 nM.

As for `Oc1ccc(CC2CCCN(c3nc(NCCCOc4ccccc4-c4ccccc4)nc(N4CCNCC4)n3)C2)cc1` (stereo unspecified), the XC50 is 916 nM.

For `Cc1c(O)cccc1Nc1ccnc2ccc(C(F)(F)F)cc12`, the XC50 came to 31.1 nM.

In turn, `CC1(C)NC(N)=NC(=N)N1OCCCc1ccc(Cl)cc1Cl` came in with an XC50 of 3.2 nM.

`O=S(=O)(NCCN1CCCC1)c1ccc(-c2ccc(CNCc3ccc(F)cc3)cc2)s1` showed an XC50 of 838 nM.

In turn, `Cc1cc(N[C@@H](Cc2ccccc2)C(=O)NCCc2ccccc2)nc(NCCOc2ccccc2)n1` gave an XC50 of 1000 nM.

Molecule `CCC(C)(C)c1ccc(S(=O)(=O)Nc2ccc(Cl)c(OCCN3CCCCC3)c2)cc1` displayed an XC50 of 1110 nM.

`NCc1ccc(Nc2nccc(Nc3ccc(-c4ccccc4)cc3)n2)cc1`: the XC50 was 892 nM.

Molecule `C/C=C1\CN2CC[C@H]1C[C@H]2[C@H](O)c1ccnc2ccc(OC)cc12` registered an XC50 of 318 nM.

In turn, `CN(C)C(CNC(=O)c1cc(-c2ccncc2)c(-c2cc3ccccc3[nH]2)o1)c1ccccc1` (stereo unspecified) yielded an XC50 of 841 nM.

`O=C(Oc1ccc(Cl)cc1C(=O)Nc1ccc([N+](=O)[O-])cc1Cl)c1ccccc1` showed an XC50 of 912 nM.

Take `Cc1cccc2nc(-c3ccc(-c4cccc(CNCc5cnn(-c6ccccc6)n5)c4)s3)[nH]c12`: the XC50 stood at 551 nM.

The molecule `CC(C)c1sc(N2CCN(C)CC2)nc1C(=O)NCCc1cccc(Cl)c1` registered an XC50 of 1490 nM.

For the molecule `COCC(=O)N(Cc1ccccc1-c1cccc(CNCCc2ccccc2)c1)C1CCN(Cc2ccccc2)CC1`, the XC50 stood at 1100 nM.

With `CCNc1cc(C(=O)N[C@@H](Cc2ccccc2)[C@H](O)CNC(C)(C)CCCC(C)C)cc(N2CCCC2=O)c1`, the XC50 came to 827 nM.

The molecule `O=C1CCCN1CCCNCc1ccc(-c2ccc(-c3nc4cc(C(F)(F)F)ccc4[nH]3)cc2)cc1` registered an XC50 of 583 nM.

As for `Cc1nc(N)nc(N)c1OCc1cccc2ccccc12`, the XC50 was 72.7 nM.

For the molecule `Cn1c2c(c3ccccc31)CN(CCC1(c3ccc(Cl)c(Cl)c3)CN(C(=O)Cc3ccccc3)CCO1)CC2` (stereo unspecified), the XC50 worked out at 358 nM.

In turn, `Cc1[nH]c(C)c(-c2ccc(-c3ccc4c(c3)OCO4)nc2)c(=O)c1Br` returned an XC50 of 187 nM.

`CC(C)C(=O)n1ncc2c3c(N)nc(N)nc3ccc21` showed an XC50 of 1030 nM.

With `COc1ccc(-c2nc(NC(=O)Cc3ccc4c(c3)OCCO4)sc2C)cc1`, the XC50 was found to be 245 nM.

`COc1ccc2ncc(F)c(CCN3CC[C@@H](CNCc4nc5c(cc4C)SCC(=O)N5)C3)c2n1` showed an XC50 of 1150 nM.

In turn, `COc1ccc(-c2cccc(NC(=O)c3cccc(C#N)c3)c2)cc1CN1CCN(C)CC1` came in with an XC50 of 926 nM.

The molecule `O=C(C=Cc1cn(-c2ccccc2)nc1-c1cccs1)N1CCN(c2ccncc2)CC1` had an XC50 of 721 nM.

Regarding `Nc1cc(-c2cccc(Cl)c2)nn1-c1ccnc2cc(Cl)ccc12`, the XC50 came out at 753 nM.

For the molecule `CC[C@H](C)CNC(=O)c1cccc(-c2ccc(CN3CCC(N4CCCC4)CC3)cc2)n1`, the XC50 was determined as 788 nM.

`CCNC(=O)N1CCN(c2nc(-c3ccccc3)nc(COC)c2Cc2ccc(C)cc2)CC1` gave an XC50 of 989 nM.

In turn, `CC[C@H](C)CNC(=O)c1cccc(-c2cccc(CN3CCC(N4CCCC4)CC3)c2)n1` came in with an XC50 of 706 nM.

With `Cn1nc(-c2cccc(CNC3CCc4ccccc43)c2)c2cnc(NC3CCCC3)nc21` (stereo unspecified), the XC50 is 857 nM.

Regarding `NC1=NC(c2ccccc2)(c2ccccc2)C(=O)N1CCOc1ccccc1`, the XC50 turned out to be 844 nM.

The molecule `CC(Cc1ccc(OCCCCOc2ccccc2)cc1)NCCC1CCCN1C` (stereo unspecified) had an XC50 of 39.7 nM.

Take `CC(C)NC(=O)c1cccc(-c2cccc(OCCN3CCSCC3c3ccccc3)c2)c1` (stereo unspecified): the XC50 was 1010 nM.

For `O=C(NCc1ccccc1)Nc1ccc(-c2ccc(-c3nc4cc(C(F)(F)F)ccc4[nH]3)cc2)cc1`, the XC50 was determined as 671 nM.

Take `CCNc1cc(C(=O)N[C@@H](Cc2ccccc2)[C@H](O)CNC23CC4CC(CC(C4)C2)C3)cc(N2CCCCS2(=O)=O)c1`: the XC50 was found to be 219 nM.

Regarding `Cn1c(Cc2ccccc2)nnc1Sc1ccc(C#N)c([N+](=O)[O-])c1`, the XC50 was 907 nM.

Molecule `Oc1ccc2[nH]c(-c3cccc(F)c3)nc2c1CNCc1ccccc1` returned an XC50 of 916 nM.

Take `COc1ccc(Nc2cc(C)nc(Nc3ccc(NC(C)=O)cc3)n2)cc1`: the XC50 came to 865 nM.

Take `COc1ccc(N2C(=O)C3C(C2=O)C2(C)c4ccccc4C3(C)c3ccccc32)c([N+](=O)[O-])c1` (stereo unspecified): the XC50 came out at 720 nM.

Regarding `CCCC(CNCc1cccc(C)c1)CNc1cc(=O)c2ccccc2[nH]1` (stereo unspecified), the XC50 is 631 nM.

The molecule `COc1cccc(CNCC(C)(C)c2nc(-c3ccc(Cl)c(O)c3)c(-c3ccncc3)[nH]2)c1` came in with an XC50 of 693 nM.

With `O=C(Nc1ccc(C(F)(F)F)cc1)NC1CCN(c2ccnc3cc(Cl)ccc23)CC1`, the XC50 worked out at 178 nM.

In the case of `CN1C(=CC(=O)NC(=O)c2ccccc2)C(C)(C)c2ccccc21`, the XC50 is 637 nM.

The molecule `Nc1cc(-c2ccc3c(N)nccc3c2)ccc1Cl` registered an XC50 of 1540 nM.

With `CC(C)NC(=O)Cn1cc(C2CCN(CC3CCN(C(=O)/C=C/c4ccc(Cl)c(Cl)c4)CC3)CC2)c2ccccc21`, the XC50 worked out at 1030 nM.

On to `COc1ccc(NC(=O)[C@H](Cc2ccccc2)Nc2cc(C)nc(NCc3ccccc3C)n2)cc1`, for which the XC50 turned out to be 794 nM.

The molecule `O=C(Nc1cccc(Cl)c1Cl)N[C@H]1CCN(CCCCCNC(=O)C2CC2c2ccc(Cl)c(Cl)c2)C1` (stereo partly specified) displayed an XC50 of 1280 nM.

With `CCN(CC)/C(=N/C(=N)Nc1ccc(Br)cc1)NCCCCCCN/C(=N\C(=N)Nc1ccc(Br)cc1)N(CC)CC`, the XC50 was determined as 384 nM.

Consider `CC(CN1CCN(C)CC1)C(=O)Nc1ccc(-c2ccc(-c3nc4ccccc4[nH]3)s2)cc1` (stereo unspecified), for which the XC50 was found to be 638 nM.

In the case of `Fc1ccc2[nH]c(-c3cccc(-c4ccc(CN5CCN(c6ccncc6)CC5)cc4)c3)nc2c1`, the XC50 turned out to be 211 nM.

Molecule `O=C(NCC1CC1)C1CCN(C(c2ccc(Cl)cc2)c2ccc(Cl)cc2)CC1` had an XC50 of 190 nM.

With `COc1ccccc1CCNc1nc(C)cc(N[C@@H](Cc2ccccc2)C(=O)Nc2ccccc2)n1`, the XC50 was determined as 1020 nM.

Turning to `Cn1cncc1C(=O)Nc1ccc(-c2cccc(-c3nc4cc(F)ccc4[nH]3)c2)cc1`, the XC50 is 818 nM.

Molecule `Nc1ncnc2nc(-c3ccc(F)cc3)cc(-c3ccc(NC(=O)c4ccccc4)cc3)c12` showed an XC50 of 640 nM.

The molecule `CCN(CCCN1CCCCC1)c1cc(C)nc(Nc2cccc(OC(F)(F)F)c2)n1` returned an XC50 of 229 nM.

For `CCOC(=O)C(=CNc1ccc(Cc2cnc(N)nc2N)cc1CC)C(=O)OCC`, the XC50 amounted to 1140 nM.

Regarding `CCc1c[nH]c2c(N3CCCC3=O)cc(C(=O)N[C@@H](Cc3ccccc3)[C@H](O)CNC(C)(C)CCCC(C)C)cc12`, the XC50 was 511 nM.

For `O=C(Nc1cc(Cl)ccc1-n1cncn1)C1(c2ccccc2)CC1`, the XC50 was determined as 455 nM.

The molecule `Cc1ccc(NC(=O)N2CCCN(CCCCCNC(=O)/C=C/c3ccc(Cl)c(Cl)c3)CC2)cc1C` had an XC50 of 773 nM.

Consider `CCn1c(-c2nonc2N)nc2c(-c3cccc(NC(=O)Nc4ccc5c(c4)CCC5)c3)ncc(OCCCN)c21`, for which the XC50 stood at 783 nM.

`CC(c1cccc(Nc2nccc(-c3c(-c4cccc(NC(=O)c5c(F)cccc5F)c4)nn4ncccc34)n2)c1)S(C)(=O)=O` (stereo unspecified) gave an XC50 of 45.6 nM.

In turn, `COc1ccccc1CNC(=O)CCn1c(=O)[nH]c2ccsc2c1=O` yielded an XC50 of 1040 nM.

`CC(CN(C)C)C(=O)Nc1cccc(-c2ccc(-c3nc4cc(F)ccc4[nH]3)cc2)c1` (stereo unspecified) had an XC50 of 653 nM.

Molecule `CCc1cc2c(cc1CC)CC(NC[C@@H](O)c1ccc(O)c3[nH]c(=O)ccc13)C2` gave an XC50 of 1120 nM.

`CC(C)(C)C1CCC(CC2=C(C(=O)O)c3ccccc3C2=O)CC1` (stereo unspecified) came in with an XC50 of 1100 nM.

`O=C(Nc1ccc(Cl)c(Cl)c1)Nc1ccccc1N1CCNCC1`: the XC50 came to 709 nM.

As to `COc1ccc(CCNC(C)Cc2ccc(C(=O)Nc3ccc(CC(C)NCCc4cccc(Cl)c4)cc3)cc2)cc1` (stereo unspecified), the XC50 came out at 248 nM.
